Key:
monocytes = assay: Kinetics of IL-10, TNF-α and IL-6 secretion from monocytes co-stimulated with LPS (AlphaLISA); assay type: cell-based, human; conditions: 1 μM, LPS 10 ng/ml
Protocol: To confirm the anti-inflammatory potential of NAT_29 (SEQ ID NO: 1), a kinetic study was performed to test the concomitant secretion of IL-10 and the major pro-inflammatory cytokines TNF-α and IL-6. To this end, monocytes were obtained as described in Example 3 and stimulated with 1 μM NAT_29 polypeptide (SEQ ID NO: 1), co-stimulated with 10 ng/ml of LPS from E. coli O111: B4 (InvivoGen, tlrl-eblps) and placed in humidified CO2 incubator at 5% CO2/37° C. for 72 h. IL-10, TNF-α and IL-6 secretion were measured at 5, 10, 24, 48 and 72 hours by AlphaLISA® on cell supernatants according to the supplier's protocol (Perkin, ref. AL218F, AL208F, AL223F) and read on an Envision plate reader (Perkin Elmer).

human ileal explants = assay: Ex vivo human ileal explants in Ussing chambers inflamed with E. coli LF82 (TER, histology, IL-8 ELISA); assay type: cell-based
Protocol: Next, the role of NAT_29 was evaluated in the context of inflammatory diseases using ex vivo experiments performed on human ileal resections. To this end, explants were mounted on Ussing Chambers in order to separate the apical side from the basolateral side as naturally occurs in the gut. Tissues were pre-incubated 1 h with NAT_29 (SEQ ID NO: 1) before inflammation was triggered with live Escherichia coli LF82 during 4 hours.
Preparation of Bacteria: The day before the assay, LB broth (Sigma Aldrich, L3522) was inoculated, using sterile loops, with bacteria from a glycerol stock (E. coli LF82-gfp) maintained at −80° C. Tubes were incubated overnight at 37° C. without shaking. The next day, optical density of the bacterial suspensions was read at 600 nm using a spectrophotometer (Amersham Ultrospec 10) allowing estimation of the bacterial cell density and bacteria were added to human explants as explained below.
Human tissue samples were obtained from patients undergoing surgery with the patients' agreement. Samples were taken from macroscopically unaffected area as identified by the surgeon. […]
Three parameters were assessed to evaluate the anti-inflammatory potential of NAT_29 in the ex vivo model: • 1) Transepithelial Electrical Resistance (TER) which is a measure of integrity/tightness of the human explants; • 2) histology; • 3) IL-8 secretion (quantified by Elisa).
TER assays are well-known methods for measuring effects on the structural and functional integrity of an epithelial cell layer, which are described, for example, in: Srinivasan et al., 2015, J Lab Autom, 20:107-126. Accordingly, the integrity/tightness of the human explants during the incubation was evaluated through Transepithelial Electrical Resistance (TER) measurement using Millicell-ERS (Electrical Resistance System) Voltohmmeter (Millipore, MERS00002). […]
IL-8 levels were measured by ELISA (BD Biosciences, 555244). […] Absorbances were measured using a microplate reader (BioTek, Synergy MX, model SMATLD) at 490 nm. […]

With “KKGSRSCFFIYLDRGTKKGSRSCFFYLP (NAT_29) [28-amino-acid fragment of microbiota protein ID3166]” the IL-6 secretion (monocytes; 5, 10, 24, 48 and 72 hours) was “no significant secretion”, the TNF-a secretion (monocytes; 5, 10, 24, 48 and 72 hours) was “no significant secretion” and the “IL-10 secretion, fold in respect to LPS, peak” value (monocytes; peak at 24 h, mean of six monocyte donors) was 2 fold. For the same sequence, the “IL-10 secretion, fold in respect to LPS, after peak” value (monocytes; until the end of the experiment (72 h)) was 1,5 Fold, the “IL-8 secretion (ELISA, basolateral side)” value (human ileal explants; 1000 or 10 nM, LF82 4 h (LF82 alone 4-fold increase)) was “completely abolished IL-8 secretion” and the TER reduction (human ileal explants; pre-incubation 1 h at 1000 nM or 10 nM, then E. coli LF82 4 hours, LF82 alone 52%, control without LF82 24%) was 32%. For the same sequence, the “histology (H&E staining) of explants” value (human ileal explants; pre-incubation with 1000 nM, LF82 4 h) was “protective effect against LF82-induced degradation”.
